Source: the supplement of paper PMC12463676, “Small-molecule dissolution of stress granules by redox modulation benefits ALS models” (Nature Chemical Biology, 2025)

Legend:
lipoamide = compound: NC(=O)CCCCC1CCSS1 [lipoamide]; experiment: thermal stability z-score vs DMSO; higher = more thermally stabilized by treatment; settings: HeLa, lipoamide concentration 100 µM
Method: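 Cellular thermal proteome profiling in HeLa cells. Cells were treated with 100 µM lipoamide for 1 h, with or without 1 mM arsenate for a further 1 h, then heated to ten temperatures (37-66.3 °C), and soluble protein was quantified by TMT mass spectrometry relative to 0.1% DMSO controls. The thermal stability score (sum of log2 fold changes minus the abundance score) was transformed to a z-score; mean of n = 3 experiments.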

potassium arsenate = compound: O=[As]([O-])(O)O.[K+] [potassium arsenate]; experiment: as above; settings: HeLa; arsenate concentration 1 mM
Method: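 Cellular thermal proteome profiling in HeLa cells treated with 1 mM arsenate for 1 h (DMSO pretreatment), heated to ten temperatures (37-66.3 °C). Soluble protein was quantified by TMT mass spectrometry relative to DMSO controls; the thermal stability score was transformed to a z-score; mean of n = 3 experiments.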

[1] = arsenate co-treatment: 1 mM arsenate 1 h
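Also: each temperature applied for 3 min, abundance score taken as mean log2 fold change at the two lowest temperatures, z-score obtained by mean subtraction and division by SD.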

Sequence of UniProt Q69YN4 (Q69YN4 whole entry): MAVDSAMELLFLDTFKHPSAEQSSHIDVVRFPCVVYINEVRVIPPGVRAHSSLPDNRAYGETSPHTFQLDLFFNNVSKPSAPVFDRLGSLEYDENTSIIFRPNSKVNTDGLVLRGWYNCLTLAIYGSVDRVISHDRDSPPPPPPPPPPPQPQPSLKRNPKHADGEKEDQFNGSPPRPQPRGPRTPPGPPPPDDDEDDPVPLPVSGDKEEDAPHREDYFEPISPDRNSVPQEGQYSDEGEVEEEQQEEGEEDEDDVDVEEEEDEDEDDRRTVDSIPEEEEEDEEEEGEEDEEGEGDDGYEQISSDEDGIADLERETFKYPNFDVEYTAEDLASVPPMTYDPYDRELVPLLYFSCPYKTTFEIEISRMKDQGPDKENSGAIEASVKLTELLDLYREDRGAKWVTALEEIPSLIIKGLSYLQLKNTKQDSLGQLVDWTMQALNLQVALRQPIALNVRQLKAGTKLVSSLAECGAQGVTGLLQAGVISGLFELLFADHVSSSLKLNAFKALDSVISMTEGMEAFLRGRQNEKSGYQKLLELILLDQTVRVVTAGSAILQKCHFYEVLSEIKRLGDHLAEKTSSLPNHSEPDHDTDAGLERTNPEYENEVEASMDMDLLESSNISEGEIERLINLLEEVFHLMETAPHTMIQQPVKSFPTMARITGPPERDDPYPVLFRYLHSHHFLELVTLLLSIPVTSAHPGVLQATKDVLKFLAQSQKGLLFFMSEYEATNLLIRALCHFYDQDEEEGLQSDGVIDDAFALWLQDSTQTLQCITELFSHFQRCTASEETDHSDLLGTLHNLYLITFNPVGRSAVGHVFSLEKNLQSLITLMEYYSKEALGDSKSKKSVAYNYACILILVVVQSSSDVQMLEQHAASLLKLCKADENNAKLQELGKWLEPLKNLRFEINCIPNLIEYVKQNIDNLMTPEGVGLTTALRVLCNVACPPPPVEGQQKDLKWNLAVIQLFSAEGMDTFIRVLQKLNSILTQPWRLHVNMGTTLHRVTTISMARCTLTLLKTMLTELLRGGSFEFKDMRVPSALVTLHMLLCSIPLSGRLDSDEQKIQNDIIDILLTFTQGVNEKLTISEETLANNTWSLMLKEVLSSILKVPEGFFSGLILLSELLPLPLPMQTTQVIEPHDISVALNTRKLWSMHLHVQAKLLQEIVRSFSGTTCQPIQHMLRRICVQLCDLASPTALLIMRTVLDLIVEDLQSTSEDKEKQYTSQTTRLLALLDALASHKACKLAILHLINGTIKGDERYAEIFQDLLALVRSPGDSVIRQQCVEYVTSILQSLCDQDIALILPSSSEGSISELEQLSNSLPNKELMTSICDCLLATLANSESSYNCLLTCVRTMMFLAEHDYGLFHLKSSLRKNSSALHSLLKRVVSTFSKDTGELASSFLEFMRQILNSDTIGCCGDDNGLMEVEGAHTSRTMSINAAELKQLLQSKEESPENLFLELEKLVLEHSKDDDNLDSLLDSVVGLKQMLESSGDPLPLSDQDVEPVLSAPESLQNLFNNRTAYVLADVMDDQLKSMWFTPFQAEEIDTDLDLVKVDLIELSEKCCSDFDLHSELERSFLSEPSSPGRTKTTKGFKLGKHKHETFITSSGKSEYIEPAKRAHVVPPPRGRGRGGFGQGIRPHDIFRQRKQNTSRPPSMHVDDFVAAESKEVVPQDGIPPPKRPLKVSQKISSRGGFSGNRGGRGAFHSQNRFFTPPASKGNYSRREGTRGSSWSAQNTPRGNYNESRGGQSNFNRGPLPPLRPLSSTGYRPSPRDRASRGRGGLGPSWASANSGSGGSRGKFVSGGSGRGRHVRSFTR
Sequence of UniProt Q9BZQ8 (Q9BZQ8 whole entry): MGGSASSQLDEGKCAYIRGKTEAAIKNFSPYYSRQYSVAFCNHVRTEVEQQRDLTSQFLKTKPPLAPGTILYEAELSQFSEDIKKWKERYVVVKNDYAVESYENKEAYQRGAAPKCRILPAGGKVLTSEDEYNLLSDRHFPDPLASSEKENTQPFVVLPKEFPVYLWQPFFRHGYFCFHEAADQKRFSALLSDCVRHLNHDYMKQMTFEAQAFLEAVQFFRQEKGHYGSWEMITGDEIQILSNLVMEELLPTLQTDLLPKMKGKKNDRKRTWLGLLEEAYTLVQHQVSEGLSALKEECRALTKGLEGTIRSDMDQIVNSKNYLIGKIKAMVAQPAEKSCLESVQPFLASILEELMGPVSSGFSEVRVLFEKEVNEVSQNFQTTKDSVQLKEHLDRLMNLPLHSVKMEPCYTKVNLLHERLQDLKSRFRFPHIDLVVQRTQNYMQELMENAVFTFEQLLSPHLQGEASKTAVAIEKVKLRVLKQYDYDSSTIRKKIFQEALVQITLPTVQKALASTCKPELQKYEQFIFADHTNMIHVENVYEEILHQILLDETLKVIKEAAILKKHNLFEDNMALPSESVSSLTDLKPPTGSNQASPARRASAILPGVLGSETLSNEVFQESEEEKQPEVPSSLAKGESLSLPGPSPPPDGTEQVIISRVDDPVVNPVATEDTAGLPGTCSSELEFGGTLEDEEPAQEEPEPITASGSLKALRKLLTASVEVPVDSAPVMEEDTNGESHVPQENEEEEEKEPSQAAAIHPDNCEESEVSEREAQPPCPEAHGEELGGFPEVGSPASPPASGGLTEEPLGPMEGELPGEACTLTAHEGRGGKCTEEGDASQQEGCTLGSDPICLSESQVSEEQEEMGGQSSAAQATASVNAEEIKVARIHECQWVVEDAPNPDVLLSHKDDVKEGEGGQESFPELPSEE
Sequence of UniProt Q5VWJ9 (Q5VWJ9 whole entry): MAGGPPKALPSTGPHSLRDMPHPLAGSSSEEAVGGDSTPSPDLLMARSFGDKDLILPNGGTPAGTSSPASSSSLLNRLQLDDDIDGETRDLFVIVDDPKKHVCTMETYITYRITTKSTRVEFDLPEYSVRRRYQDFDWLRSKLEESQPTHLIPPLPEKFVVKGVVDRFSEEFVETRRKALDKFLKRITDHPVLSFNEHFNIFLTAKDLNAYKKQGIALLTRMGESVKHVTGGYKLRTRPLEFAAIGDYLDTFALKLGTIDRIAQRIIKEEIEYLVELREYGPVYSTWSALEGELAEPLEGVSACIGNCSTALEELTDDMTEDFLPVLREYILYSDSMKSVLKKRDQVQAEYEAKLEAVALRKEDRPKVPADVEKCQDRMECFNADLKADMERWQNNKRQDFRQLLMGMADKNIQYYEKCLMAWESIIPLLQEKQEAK
Sequence of UniProt Q5VIR6 (Q5VIR6 whole entry): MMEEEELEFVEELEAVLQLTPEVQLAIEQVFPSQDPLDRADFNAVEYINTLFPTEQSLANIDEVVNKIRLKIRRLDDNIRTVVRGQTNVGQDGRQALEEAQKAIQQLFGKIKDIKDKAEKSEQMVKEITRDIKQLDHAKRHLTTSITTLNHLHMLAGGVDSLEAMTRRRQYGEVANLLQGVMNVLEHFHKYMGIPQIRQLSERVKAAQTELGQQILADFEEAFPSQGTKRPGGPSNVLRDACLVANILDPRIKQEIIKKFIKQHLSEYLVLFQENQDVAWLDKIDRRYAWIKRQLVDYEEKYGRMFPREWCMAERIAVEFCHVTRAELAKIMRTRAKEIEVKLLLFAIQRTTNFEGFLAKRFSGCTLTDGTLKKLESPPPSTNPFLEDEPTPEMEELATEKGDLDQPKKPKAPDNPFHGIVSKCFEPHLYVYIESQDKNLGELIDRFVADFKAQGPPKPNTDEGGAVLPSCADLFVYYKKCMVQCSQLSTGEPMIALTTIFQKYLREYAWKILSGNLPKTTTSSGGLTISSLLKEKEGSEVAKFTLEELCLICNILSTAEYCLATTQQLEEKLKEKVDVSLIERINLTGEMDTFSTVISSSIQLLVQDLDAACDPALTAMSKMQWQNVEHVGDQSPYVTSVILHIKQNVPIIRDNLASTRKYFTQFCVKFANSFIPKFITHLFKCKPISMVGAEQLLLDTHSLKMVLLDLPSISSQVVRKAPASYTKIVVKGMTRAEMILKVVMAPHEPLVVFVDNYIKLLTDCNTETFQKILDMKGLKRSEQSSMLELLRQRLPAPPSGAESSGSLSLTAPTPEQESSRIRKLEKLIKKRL
Sequence of UniProt Q14764 (Q14764 whole entry): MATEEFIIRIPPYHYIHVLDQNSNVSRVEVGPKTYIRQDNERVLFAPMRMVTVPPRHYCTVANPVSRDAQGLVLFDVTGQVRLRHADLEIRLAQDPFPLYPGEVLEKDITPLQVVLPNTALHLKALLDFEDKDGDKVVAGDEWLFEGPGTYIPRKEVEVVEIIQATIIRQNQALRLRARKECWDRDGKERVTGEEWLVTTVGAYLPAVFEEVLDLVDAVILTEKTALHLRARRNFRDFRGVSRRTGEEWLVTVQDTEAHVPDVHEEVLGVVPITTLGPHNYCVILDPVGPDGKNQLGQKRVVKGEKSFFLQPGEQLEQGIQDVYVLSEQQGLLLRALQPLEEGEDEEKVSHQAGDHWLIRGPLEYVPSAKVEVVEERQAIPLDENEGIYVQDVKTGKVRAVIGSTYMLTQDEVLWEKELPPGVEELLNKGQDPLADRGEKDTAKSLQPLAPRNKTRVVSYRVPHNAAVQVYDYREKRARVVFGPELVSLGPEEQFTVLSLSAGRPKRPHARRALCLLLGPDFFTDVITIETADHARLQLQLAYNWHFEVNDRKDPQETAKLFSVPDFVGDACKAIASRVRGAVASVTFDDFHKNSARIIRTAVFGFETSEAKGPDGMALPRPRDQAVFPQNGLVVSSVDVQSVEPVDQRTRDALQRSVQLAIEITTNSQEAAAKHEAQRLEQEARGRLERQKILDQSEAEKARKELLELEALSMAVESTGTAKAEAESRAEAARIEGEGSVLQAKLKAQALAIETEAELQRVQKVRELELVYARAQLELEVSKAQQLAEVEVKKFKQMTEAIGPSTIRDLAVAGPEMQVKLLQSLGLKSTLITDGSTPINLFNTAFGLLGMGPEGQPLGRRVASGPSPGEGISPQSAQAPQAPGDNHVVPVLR
Sequence of UniProt Q969Q5 (Q969Q5 whole entry): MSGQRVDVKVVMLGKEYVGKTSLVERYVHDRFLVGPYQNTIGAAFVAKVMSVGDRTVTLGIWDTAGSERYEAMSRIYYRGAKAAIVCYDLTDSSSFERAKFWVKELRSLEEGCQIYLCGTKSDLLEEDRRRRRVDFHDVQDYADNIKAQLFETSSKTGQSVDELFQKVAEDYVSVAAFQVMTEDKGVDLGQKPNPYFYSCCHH

Row | Target | thermal stability z-score (lipoamide; [1]) | thermal stability z-score (lipoamide; arsenate co-treatment: none) | thermal stability z-score (potassium arsenate)
1 | TSEN15 (UniProt Q8WW01) | -0.438 | -0.0314 | 0.473
2 | BST2 (UniProt Q10589) | 0.265 | 0.606 | 0.172
3 | RAB24 (UniProt Q969Q5) | 0.205 | 0.12 | -0.143
4 | ABI1 (UniProt Q8IZP0) | -0.715 | -0.452 | -0.656
5 | TMOD3 (UniProt Q9NYL9) | -0.494 | 0.384 | 0.732
6 | OPTN (UniProt Q96CV9) | -0.94 | -0.477 | 1.01
7 | MVP (UniProt Q14764) | 0.484 | 0.37 | 1.08
8 | ARHGAP29 (UniProt Q52LW3) | -0.215 | -0.998 | -1.28
9 | SNX30 (UniProt Q5VWJ9) | -0.254 | 0.144 | -0.275
10 | ZHX1 (UniProt Q9UKY1) | 0.0297 | 0.122 | -0.0668
11 | SSH3 (UniProt Q8TE77) | 0.153 | -0.0576 | -0.0687
12 | CLPP (UniProt Q16740) | 0.049 | -0.299 | 0.151
13 | LGMN (UniProt Q99538) | -0.232 | -0.461 | -0.193
14 | ERCC3 (UniProt P19447) | 0.0686 | 0.0573 | 0.156
15 | ARSA (UniProt P15289) | 0.254 | 0.195 | -0.0376
16 | ABHD17C (UniProt Q6PCB6) | -0.923 | -0.152 | -0.29
17 | GDI1 (UniProt P31150) | 0.00835 | -0.013 | -0.353
18 | FURIN (UniProt P09958) | 0.3 | 0.345 | 0.11
19 | CDK1 (UniProt P06493) | 0.163 | -0.0348 | 0.246
20 | PCM1 (UniProt Q15154) | -0.0188 | -0.104 | 0.131
21 | ATG13 (UniProt O75143) | -0.00854 | 0.21 | 0.699
22 | EFHD2 (UniProt Q96C19) | 0.403 | 0.677 | -0.223
23 | KIAA1429 (UniProt Q69YN4) | -0.266 | -0.035 | -0.0736
24 | ZFR (UniProt Q96KR1) | 0.561 | 0.0288 | -0.37
25 | BZW2 (UniProt Q9Y6E2) | 0.428 | 0.313 | -0.183
26 | DYRK1A (UniProt Q13627) | -0.118 | -0.0216 | 0.54
27 | POLA2 (UniProt Q14181) | -0.305 | -0.0588 | -0.183
28 | CPSF7 (UniProt Q8N684) | 0.18 | 0.191 | -0.36

Row | Target | thermal stability z-score (lipoamide; [1]) | thermal stability z-score (lipoamide; arsenate co-treatment: none) | thermal stability z-score (potassium arsenate)
29 | GIPC3 (UniProt Q8TF64) | -0.481 | -0.0967 | -0.214
30 | MED4 (UniProt Q9NPJ6) | 0.794 | 0.377 | -0.174
31 | CYP51A1 (UniProt Q16850) | -0.665 | -0.0953 | 0.803
32 | PAPSS2 (UniProt O95340) | -0.146 | -0.156 | 1.57
33 | STK10 (UniProt O94804) | -0.201 | -0.0461 | 0.146
34 | UBAP2 (UniProt Q5T6F2) | 0.26 | -0.00688 | -0.47
35 | ACAD11 (UniProt Q709F0) | -0.363 | 0.0251 | -0.343
36 | RPL37 (UniProt P61927) | 0.254 | 0.203 | -0.915
37 | GGPS1 (UniProt O95749) | 0.498 | 0.521 | -0.212
38 | WTAP (UniProt Q15007) | 0.0767 | 0.0181 | -0.059
39 | NUP188 (UniProt Q5SRE5) | -0.451 | -0.512 | 0.426
40 | FBXO9 (UniProt Q9UK97) | -0.495 | -1.62 | -0.61
41 | RBMX (UniProt P38159) | 1.51 | 0.311 | -0.366
42 | SWAP70 (UniProt Q9UH65) | -0.295 | 0.217 | 0.3
43 | VPS53 (UniProt Q5VIR6) | 0.332 | 0.126 | -0.0122
44 | NTMT1 (UniProt Q9BV86) | -0.319 | -0.204 | -0.137
45 | PI4KB (UniProt Q9UBF8) | -0.62 | 0.386 | 0.692
46 | MMACHC (UniProt Q9Y4U1) | -0.0163 | -0.159 | -0.12
47 | SLC29A1 (UniProt Q99808) | 0.272 | 0.818 | 0.277
48 | PFDN2 (UniProt Q9UHV9) | 0.967 | 1.21 | 0.132
49 | TPM4 (UniProt P67936) | 0.31 | 0.407 | -0.0802
50 | FAM129A (UniProt Q9BZQ8) | -0.167 | -0.0302 | 0.444
51 | RPS6 (UniProt P62753) | 1.06 | 0.834 | -0.404
52 | NFS1 (UniProt Q9Y697) | -0.356 | -0.438 | -1.15
53 | STAT5A (UniProt P42229) | -0.0259 | 0.314 | 0.0163
54 | GGNBP2 (UniProt Q9H3C7) | 0.141 | 0.168 | -1.84
55 | TTC37 (UniProt Q6PGP7) | -0.601 | -0.234 | -0.0411
